Measurements taken from patent publication US6911531B2, “Antibodies directed towards a novel human EP prostaglandin receptor” (Allergan, Inc., priority 1994, dated 2005).

How the values were obtained:
human HP4 receptor [1] = target: T1, human HP4 receptor (Homo sapiens, UniProt P43116); assay: Competition of [3H]-PGE2 binding to membranes of HP4-transfected COS-7 cells; conditions: [3H]-PGE2 5 nM, 100 μg protein/tube, 60 minutes at room temperature; FIG. 1A-1C
T1 construct: a plasmid with a complete open reading frame in the sense orientation was isolated; expressed in transfected cells; host or cells: COS-7 cells (ATCC CRL 1651), transient DEAE-dextran transfection with pBC/HP4
Method: (§1) Monolayers of COS-7 cells (ATCC CRL 1651; 70-80% confluent) were rinsed with Phosphate Buffered Saline (PBS, Ca/Mg-free) in 150×25 mm culture dishes. Ten ml transfection mix, consisting of 5 μ/ml plasmid DNA and 0.5 mg/ml DEAE-dextran in PBS, was added to each dish and cells were incubated for 30 min at 37° C. Nine ml of the solution was removed from each dish followed by the addition of 10 ml of […] chloroquine in Dulbecco's Modified Eagle Medium (DMEM)/5% fetal bovine serum (FBS). The cells were incubated for 2.5 hr at 37° C., the solution aspirated and 10 ml of 10% dimethyl sulfoxide (DMSO) in DMEM/5% FBS was added. After a 2.5 minute incubation at 37° C., the solution was aspirated and 30 ml DMEM/5% FBS was added. The cells were incubated at 37° C. with media changes at 24 and 48 hours. After 72 hours, the media was aspirated and the cells were scraped into cold TME buffer (50 mM Tris-HCl, pH 7.4, 10 mM MgCl2, 1 mM EDTA). The dishes were rinsed with cold TME buffer and the cells combined and placed on ice.
Transfected COS-7 cells were homogenized for 30 seconds at approximately 80% power with a Brinkman PT 10/35 Polytron homogenizer. The resulting homogenate was centrifuged at 19,000 rpm for 20 minutes at 4° C. using a Sorvall SS-34 rotor. The membrane pellet was resuspended in cold TME buffer (1 ml per original dish), frozen in liquid nitrogen and stored at −80° C.
Membrane pellets were then diluted in ice-cold 50 mM Tris-HCl buffer at pH 7.4 using a sonicator set at 50 watts. Membrane suspensions (100 μl) were then added to each assay tube to start the binding reaction. Final concentrations of the competition assay were as follows: [^3H]-PGE2, 5 nM; 100 μg protein/tube in a total volume of 200 μl. Increasing concentrations of compounds to be tested for competitively inhibiting binding were incubated for 60 minutes at room temperature. Contents were aspirated onto a presoaked ice-cold Whatman GF/B filter using a Brandel Cell Harvester and washed three times with ice-cold assay buffer. The filters were dried, placed in scintillation fluid and counted.

human myometrium = conditions: Yeardley et al., 1992; cited from earlier work
human neutrophils = conditions: Nials et al., 1993; cited from earlier work
[2] = Nials et al., 1993; cited from earlier work
human HP4 receptor [3] = target: T1, human HP4 receptor; assay: cAMP assay on HP4-transfected COS-7 cells; type: cell-based; conditions: FIG. 2
Method: as §1
HP4-transfected COS-7 cells, prepared as described in Example 2, were cultured in DMEM containing 10% FCS, 100 units/ml penicillin, 100 μ/ml streptomycin. […] Cells were trypsinized and resuspended in a small volume of medium (2-3 ml), counted using a hemocytometer and diluted to 7-8×10^4 cells/ml (DMEM/5% FCS). […] The amount of cAMP was quantified as follows. […]

putative EP2 receptor = conditions: cloned receptor of An et al. 1993 / Honda et al. 1993; cited from earlier work

T1 sequence (P43116 whole entry): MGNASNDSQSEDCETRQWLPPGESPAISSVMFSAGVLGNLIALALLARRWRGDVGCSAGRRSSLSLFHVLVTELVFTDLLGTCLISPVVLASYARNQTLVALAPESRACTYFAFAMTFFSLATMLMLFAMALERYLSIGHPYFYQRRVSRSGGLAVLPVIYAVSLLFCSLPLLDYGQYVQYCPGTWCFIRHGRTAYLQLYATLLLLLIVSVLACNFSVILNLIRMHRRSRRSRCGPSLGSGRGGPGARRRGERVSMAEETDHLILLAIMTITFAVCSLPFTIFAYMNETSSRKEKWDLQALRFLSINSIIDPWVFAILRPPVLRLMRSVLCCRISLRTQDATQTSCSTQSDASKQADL

SMILES | competition of [3H]-PGE2 binding (human HP4 receptor [1]) | other results
CCCCC[C@H](O)/C=C/[C@H]1CCC(=O)[C@@H]1CCCCCCC(=O)O [11-deoxy PGE1] | exhibited competitive activity | 
CCCCC(C)(C)[C@H](O)/C=C/[C@H]1[C@H](O)CC(=O)[C@@H]1C/C=C\CCCC(=O)O [16,16-dimethyl PGE2] | active | 
C[C@@H](O)CCC[C@H](O)/C=C/[C@H]1[C@H](O)CC(=O)[C@@H]1C/C=C\CCCC(=O)O [19(R)-hydroxy PGE2] | exhibited competitive activity | 
CCCCCC(O)c1ccc(C2CCC(=O)C2CCCCCCC(=O)O)cc1 (stereo not shown) [AH13205] | displaced | spontaneous contraction of human myometrium (human myometrium): inhibits; release of the inflammatory mediator leukotriene B4 (human neutrophils): inhibit; bronchodilation [2]: induce bronchodilation
O=C(O)CCCCCC[C@H]1C(=O)CC[C@@H]1/C=C/[C@@H](O)COc1ccccc1 [MB 28767] | only slightly active | 
CCCCC[C@H](O)/C=C/[C@H]1[C@H](O)CC(=O)[C@@H]1CCCCCCCO [PGE1-1-OH] | only slightly active | 
CCCCC[C@H](O)/C=C/[C@H]1[C@H](O)CC(=O)[C@@H]1CCCCCCC(=O)O [PGE1] | strongest competitors | 
CCCCC[C@H](O)/C=C/[C@H]1[C@H](O)CC(=O)[C@@H]1C/C=C\CCCC(=O)O [PGE2, Prostaglandin E2] | strongest competitors | cAMP levels (human HP4 receptor [3]; IBMX, 3 minutes at 37° C.): significantly increased; potency order of stimulation of cAMP formation (human HP4 receptor [3]; order PGE2, AH13205, butaprost, PGE1-1-OH): potently stimulate cAMP formation
CS(=O)(=O)NC(=O)CCC/C=C\C[C@H]1C(=O)C[C@@H](O)[C@@H]1/C=C/[C@@H](O)COc1ccccc1 [Sulprostone] | inactive | 
CCCC1([C@H](O)C/C=C/[C@H]2[C@H](O)CC(=O)[C@@H]2CCCCCCC(=O)OC)CCC1 [butaprost] | displaced | activity at the putative EP2 receptor clone (putative EP2 receptor): inactive
